From BigSolDB 2.1

CC1(C)O[C@H]2CC(=O)OC[C@]23[C@H]2CC[C@@]4(C)[C@H](c5ccoc5)OC(=O)[C@H]5O[C@]54[C@]2(C)C(=O)C[C@@H]13
solubility (mole fraction)
Conditions | 283.2 K | 288.2 K | 293.2 K | 298.2 K | 303.2 K | 308.2 K | 313.2 K | 318.2 K | 323.2 K
in THF | 0.00242 | 0.00257 | 0.0028 | 0.00309 | 0.00327 | 0.0035 | 0.00408 | 0.00458 | 0.00486
in acetonitrile | 0.00272 | 0.00314 | 0.00349 | 0.00385 | 0.00454 | 0.00523 | 0.00628 | 0.00739 | 0.00857
in chloroform | 0.00425 | 0.00433 | 0.00447 | 0.00458 | 0.00479 | 0.00512 | 0.00531 | 0.0057 | 0.00599
in ethanol | 2.65e-05 | 2.93e-05 | 3.05e-05 | 3.53e-05 | 4.27e-05 | 5.48e-05 | 6.71e-05 | 8.49e-05 | 0.000101
in ethyl acetate | 0.000746 | 0.000761 | 0.000801 | 0.00085 | 0.00094 | 0.000979 | 0.00101 | 0.00119 | 0.00128
in isopropanol | 1.08e-05 | 1.25e-05 | 1.56e-05 | 1.79e-05 | 1.87e-05 | 2.25e-05 | 3.03e-05 | 3.47e-05 | 4.52e-05
in n-butanol | 1.53e-05 | 1.94e-05 | 2.01e-05 | 2.64e-05 | 2.91e-05 | 3.54e-05 | 4.23e-05 | 5.62e-05 | 7.25e-05
in n-butyl acetate | 0.000323 | 0.000349 | 0.000375 | 0.000413 | 0.000484 | 0.00053 | 0.000616 | 0.000646 | 0.00068
